Measurements as given in patent US12667824B2, “Carbon dioxide absorbent” (MITSUBISHI GAS CHEMICAL COMPANY, INC., priority 2020, dated 2026).
Read-outs that look alike come from different tables or passages of the source.

Columns and labels:
[1] = Maximum endothermic temperature of amine compound (DSC, volatilization); type: physicochemical; settings: DSC 23 to 350° C., 10° C./min, nitrogen; volatilization of the amine compound
Method: DSC measurements were performed on the amine compounds used in Examples and Comparative Examples to measure the maximum endothermic temperature of the amine compounds as follows. First, a differential scanning calorimetry was performed on the amine compounds using a differential thermogravimetric analyzer (Product Name: DTG-60 produced by Shimadzu Corporation) under conditions of 23 to 350° C. of a measurement temperature range, 10° C./min of a heating rate, and a nitrogen atmosphere. From the DSC curve obtained thereby, the temperature at which the endothermic amount associated with the volatilization of the amine compound reached the maximum was calculated, and the temperature thereof was used as the maximum endothermic temperature of the amine compound.

[2] = Amine value of amine compound (JIS K7237-1995 titration); type: physicochemical; settings: 0.1 N perchloric acid-acetic acid titration
Method: The amine value was measured by the following measurement method in accordance with JIS K7237-1995. • (1) Dissolving 0.1 g of the amine compound in 20 mL of the acetic acid. • (2) Calculating the amine value by titrating the solution obtained in the above (1) with the 0.1 N perchloric acid-acetic acid solution using the automatic potentiometric titrator (AT-610 produced by Kyoto Electronics Manufacturing Co., Ltd.).

[3] = Maximum carbon dioxide (CO2) release temperature of amine compound (DSC); type: physicochemical; settings: amine compound with CO2 absorbed, DSC 23 to 250° C., 10° C./min, nitrogen
Method: (Maximum Carbon Dioxide (CO2) Release Temperature of Amine Compound)
After the above evaluation of the carbon dioxide absorption capacity was completed, the amine compound was removed from the desiccator to obtain the amine compound with carbon dioxide absorbed. The DSC measurement was performed on the amine compound with carbon dioxide absorbed as follows, to measure the maximum carbon dioxide release temperature of the amine compound. […] From the DSC curve obtained thereby, the temperature at which the endothermic amount associated with the desorption of carbon dioxide reached the maximum was calculated, and the temperature thereof was used as the maximum carbon dioxide release temperature of the amine compound.

[4] = Cycle evaluation (absorption, regeneration at 100° C. for 1 hour); settings: before and after heating at 100° C. for 1 hour; for Weight Retention 1st Time: 1st regeneration; for Weight Retention 2nd Time: 2nd regeneration
Method: After the above evaluation of the carbon dioxide absorption capacity was completed, the amine compound was removed from the desiccator, and the amine compound with carbon dioxide absorbed was heated at 100° C. for 1 hour to release the carbon dioxide absorbed and regenerate the amine compound. At this time, weights of the amine compound before and after the heat treatment were measured, and a weight retention (1st time) was calculated.
Then, on the regenerated amine compound, the above evaluation of the carbon dioxide absorption capacity was performed again, and changes of the carbon dioxide concentration in the desiccator were measured after 2 hours and 24 hours (2nd time).
Then, the amine compound was removed from the desiccator, and the amine compound with carbon dioxide absorbed was heated at 100° C. for 1 hour to release carbon dioxide absorbed and regenerate the amine compound again. At this time, the weights of the amine compound before and after the heat treatment were measured, and the weight retention (2nd time) was calculated.
Next, on the regenerated amine compound, the above evaluation of the carbon dioxide absorption capacity was evaluated again, and changes of the carbon dioxide concentration in the desiccator were measured after 2 hours and 24 hours (3rd time).

[5] = Acid dissociation constant (pKa) of amine compound by acid-base titration; type: physicochemical; settings: in purified water, 25±2° C.
Method: The acid dissociation constant of the amine compound was determined by the following method. • (1) Dissolving 0.2 g of the amine compound in 30 mL of the purified water. • (2) Calculating the acid dissociation constant (pKa) by titrating the solution obtained in the above (1) with the 0.1 N perchloric acid-acetic acid solution using the automatic potentiometric titrator (AT-610 produced by Kyoto Electronics Manufacturing Co., Ltd.).
Still, let the temperature at the time of measurement be 25±2° C.

Compound | Maximum Endothermic Temperature [1] | Amine Value [2] | Maximum CO2 Release Temperature [3] | Weight Retention 1st Time [4] | Weight Retention 2nd Time [4] | pKa ([5]; purified water, read-out: pKa) | pKa [5]
NCCCNCC1CCCC(CNCCCN)C1 (stereo not shown) [Example 5] | 246.7 °C | 844 mgKOH/g | 97.8 °C | 100% | 100% | – | –
NCC1CCC(CN)CC1 (single isomer, unassigned) [Example 2, 1,4-bis(aminomethyl)cyclohexane] | 155.6 °C | 789 mgKOH/g | 135.2 °C | – | – | 10.9 | –
NCCNCCNCCN [Comparative Example 2, Triethylenetetramine, reference compound] | 184.1 °C | 1535 mgKOH/g | 69.5 °C | 98% | 95% | – | –
N#CCCNCC1CCCC(CN)C1 (stereo not shown) [Example 4] | – | – | – | – | – | 10.9 | –
NCC1CCC(CN)CC1 (single isomer, unassigned) [Example 3, 1,4-bis(aminomethyl)cyclohexane] | 155.9 °C | 789 mgKOH/g | 130 °C | – | – | – | 11.3
